The source of these data is patent US5434136A, “Treatment of motility disorders with a GNRH analog” (priority 1992, dated 1995).

The structures appear in SMILES notation.

One assay relates to irritable bowel syndrome. The conditions noted are these: patient, three months. As to the method:
The patient, a patient suffering from irritable bowel syndrome presented symptoms of nausea, vomiting, abdominal pain, and altered bowel habits. This patient was treated with lupron, 2.0 mg/day by subcutaneous injection, for a period of six months. […] Nafarelin is a GnRH analog available from SYNTEX, which differs from the natural GnRH peptide in a D-Nal (2)^6 substitution. […] Nafarelin therapy was discontinued, and treatment with Danazol, a 17-ethyltestosterone derivative known to antagonize GnRH receptors at the level of the pituitary, was begun, at 200 mg four times daily, P.O., for a period of three months.

Assay [1] concerns diseases of the autonomic nervous system. The conditions noted are these: cited from earlier work; for Success of therapy: patients with mild to moderate disease symptoms; for Relief of symptoms: mild to moderate symptoms; for Relief of symptoms / Effectiveness in patients with severe symptoms: experimental drugs.

Consider `C#C[C@]1(O)CC[C@H]2[C@@H]3CCC4=Cc5oncc5C[C@]4(C)[C@H]3CC[C@@]21C` [Danazol], for which, in the assay on irritable bowel syndrome (200 mg four times daily, P.O.), the Therapeutic effect result is given as “only minimal therapeutic effect”. On to `CC(C)C[C@H](NC(=O)[C@@H](Cc1ccc2ccccc2c1)NC(=O)[C@H](Cc1ccc(O)cc1)NC(=O)[C@H](CO)NC(=O)[C@H](Cc1c[nH]c2ccccc12)NC(=O)[C@H](Cc1c[nH]cn1)NC(=O)[C@@H]1CCC(=O)N1)C(=O)N[C@@H](CCCNC(=N)N)C(=O)N1CCC[C@H]1C(=O)NCC(N)=O` [Nafarelin], for which, in the assay on irritable bowel syndrome (2.0 mg/day s.c.), the “Blood levels of FSH and LH” value was “effectively reduced their blood levels of FSH and LH”; the “Symptoms of irritable bowel disease” value is “effectively reduced the symptoms of their irritable bowel disease”. Take `CC(C[N+](C)(C)C)OC(N)=O` (stereo not drawn) [bethanechol]: the Success of therapy result in assay [1] is given as “limited success”.

Take `COc1cc(N)c(Cl)cc1C(=O)NC1CCN(CCCOc2ccc(F)cc2)CC1OC` (stereo not drawn) [cisapride]: in assay [1], the Relief of symptoms entry was “limited relief of mild to moderate symptoms” and the “Effectiveness in patients with severe symptoms” value is “not been effective”. Turning to `O=c1[nH]c2ccccc2n1CCCN1CCC(n2c(=O)[nH]c3cc(Cl)ccc32)CC1` [domperidone], in assay [1], the Relief of symptoms result is “limited relief of mild to moderate symptoms” and the “Effectiveness in patients with severe symptoms” value is recorded as “not been effective”.

In the case of `CCN(CC)CCNC(=O)c1cc(Cl)c(N)cc1OC` [metoclopramide], the Success of therapy entry in assay [1] is “limited success”.
